The values below come from US8648097B2, “Pyridylaminoacetic acid compound” (Ube Industries, Ltd., priority 2008, dated 2014).

Assay [1] has as its system isolated guinea pig trachea. The assay can be described thus: Isolated guinea pig trachea relaxation test. To be noted: 50% relaxation of 0.1 μM carbachol-induced contraction. How it is done:
The tracheas were isolated from guinea pigs (Hartley, male, age 7 to 9 weeks, supplier: Nippon SLC) followed by cutting as rings containing cartilage. Trachea specimens were prepared by cutting the side opposite from the smooth muscle from the rings. The trachea specimens were suspended in Krebs solution containing 3 μM indomethacin while applying a load of 0.5 g, and changes in tension were measured through an FD pickup (TB-611T, Nippon Kohden). The trachea specimens were then warmed to 37° C. and perfused with a mixed gas consisting of 95% oxygen and 5% carbon dioxide. Next, after causing the trachea specimen to contract by adding 0.1 μM carbachol, a test compound dissolved in dimethylsulfoxide was cumulatively added starting at a low concentration to cause the trachea specimen to relax.

Assay [2] addresses T1, EP2 (Homo sapiens, UniProt P43116). Briefly: Measurement of EP2 agonist activity (cAMP in HEK293 cells). It is filed as cell-based. Set-up: host or cells: HEK293 cells. To be noted: amount of cAMP in HEK293 cells (ES-562-C, Euroscreen), 30 minutes. How it is done:
Measurement of EP2 agonist activity was carried out in compliance with the method of Wilson et al. (European Journal of Pharmacology, 501, 49 (2004)). HEK293 cells (ES-562-C, Euroscreen) were cultured in MEM medium containing 10% FBS and seeded at 2×10^4 cells per well of a 96-well plate. On the following day, the medium was replaced with serum-free MEM medium containing 3-isobutyl-1-methylxanthine (final concentration: 500 μM) and after culturing for 30 minutes, a test compound dissolved in dimethylsulfoxide was added followed by allowing to stand undisturbed in a carbon dioxide incubator. After 30 minutes, the amount of cAMP in the cells was measured with a cAMP Biotrak EIA System kit (GE Healthcare Sciences).

The target of assay [3] is T1, EP2. Briefly: Measurement of EP2 receptor binding action. Set-up: expressed in transfected cells; host or cells: HEK293 cells (membrane fraction). How it is done: Measurement of EP2 receptor binding action was carried out in compliance with the method of Abramovitz et al. (Biochimica et Biophysica Acta, 1483, 285 (2000)). […] The membrane fraction was recovered on glass fiber filter paper (GF/B, Whatmann) using a cell harvester (M30R, Brandel), and after washing with buffer solution (10 mM MES-KOH (pH 6.0), 10 mM MgCl2), radioactivity was measured with a liquid scintillation analyzer (2000CA, Packard). […] The dissociation constant (Kd) was calculated by Scatchard analysis. Furthermore, a Compound A shown in the table is a sodium salt of {3-[(4-tert-butylbenzyl)(pyridin-3-ylsulfonyl)aminomethyl]-phenoxy}acetic acid (CP-533,536), which is the compound of Example 14e of WO 99/19300A, and is a control compound having EP2 receptor binding action.

The mark [4] stands for this setting: read-out: Ki Value of EP2 Receptor Binding Action.

Structures are written as SMILES. Where a name gives a salt, the structure may show the parent alone. Read-outs that look alike come from different tables or passages of the source.

T1 sequence (P43116 whole entry): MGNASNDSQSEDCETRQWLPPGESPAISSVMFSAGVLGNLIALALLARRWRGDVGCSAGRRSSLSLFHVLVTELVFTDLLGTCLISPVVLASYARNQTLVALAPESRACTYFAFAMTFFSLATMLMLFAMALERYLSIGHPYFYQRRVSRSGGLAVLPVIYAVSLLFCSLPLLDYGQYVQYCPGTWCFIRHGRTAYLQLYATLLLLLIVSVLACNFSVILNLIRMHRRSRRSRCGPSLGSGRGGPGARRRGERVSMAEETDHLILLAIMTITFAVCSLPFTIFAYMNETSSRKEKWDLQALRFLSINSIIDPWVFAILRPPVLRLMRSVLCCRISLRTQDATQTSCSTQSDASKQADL

Regarding `CC(C)(C)c1ccc(CN(Cc2cccc(OCC(=O)O)c2)S(=O)(=O)c2cccnc2)cc1` [Compound A, {3-[(4-tert-butylbenzyl)(pyridin-3-ylsulfonyl)aminomethyl]-phenoxy}acetic acid, reference compound], half-maximal inhibition in assay [1] (Cavia porcellus) (IC50) required 86 nM. This counts as double-digit nanomolar.
The compound `O=C(O)CNc1cccc(CN(Cc2ccc(-c3nccs3)cc2)S(=O)(=O)c2cccnc2)n1` [Example 2, (6-{(Pyridin-3-ylsulfonyl)[4-(thiazol-2-yl)benzyl]aminomethyl}pyridin-2-ylamino)-acetic acid] yielded an IC50 in assay [1] (Cavia porcellus) of 5.7 nM.
Turning to `O=C(O)CNc1cccc(CN(Cc2ccc(-c3nccs3)cc2)S(=O)(=O)c2ccccn2)n1` [Example 3, (6-{(Pyridin-2-ylsulfonyl)[4-(thiazol-2-yl)benzyl]aminomethyl}pyridin-2-ylamino)-acetic acid], it took 0.45 nM to reach a half-maximal effect in assay [2] (EC50). The Ki in assay [3] (setting [4]) was 1.9 nM.
As to `O=C(O)CNc1cccc(CN(Cc2ccc(-c3nccs3)cc2)S(=O)(=O)c2ccc(F)cc2)n1` [Example 4, (6-{(4-Fluorobenzenesulfonyl)[4-(thiazol-2-yl)benzyl]aminomethyl}pyridin-2-ylamino)acetic acid], the EC50 in assay [2] was 0.29 nM. In addition, in assay [3] ([3H]prostaglandin E2 10 nM, membrane fraction of HEK293 cells expressing human EP2 receptor, read-out: Ki Value of EP2 Receptor Binding Action), the Ki stood at 2.8 nM. In assay [1], half-maximal inhibition (IC50) was put at 4.5 nM.
`O=C(O)CNc1cccc(CN(Cc2ccc(C3=NCCS3)cc2)S(=O)(=O)c2ccc(F)cc2)n1` [Example 5, (6-{[4-(4,5-Dihydrothiazol-2-yl)benzyl](4-fluorobenzenesulfonyl)aminomethyl}-pyridin-2-ylamino)acetic acid] gave an EC50 in assay [2] of 1.8 nM. Moreover, the inhibition constant Ki in assay [3] (setting [4]) worked out at 7 nM.
`O=C(O)CNc1cccc(CN(Cc2ccc(-c3ccccc3)cc2)S(=O)(=O)c2cccnc2)n1` [Example 6, {6-[(Biphenyl-4-ylmethyl)(pyridin-3-ylsulfonyl)aminomethyl]pyridin-2-ylamino}acetic acid hydrochloride] showed an EC50 in assay [2] of 2 nM. In assay [3], the Ki amounted to 3.8 nM.
As for `O=C(O)CNc1cccc(CN(Cc2ccc(-n3cccn3)cc2)S(=O)(=O)c2cccnc2)n1` [Example 7, (6-{[4-(Pyrazol-1-yl)benzyl](pyridin-3-ylsulfonyl)aminomethyl}pyridin-2-ylamino)-acetic acid hydrochloride], it took 2.8 nM to reach a half-maximal effect in assay [2] (EC50).
In assay [2], `O=C(O)CNc1cccc(CN(Cc2cc3ccccc3o2)S(=O)(=O)c2cccnc2)n1` [Example 8, {6-[(Benzofuran-2-ylmethyl)(pyridin-3-ylsulfonyl)aminomethyl]pyridin-2-ylamino}-acetic acid hydrochloride] registered an EC50 of 5.6 nM.
With `O=C(O)CNc1cccc(CN(Cc2ccc(-c3ccc(F)cc3)cc2)S(=O)(=O)c2cccnc2)n1` [Example 9, {6-[(4′-Fluorobiphenyl-4-ylmethyl)(pyridin-3-ylsulfonyl)aminomethyl]pyridin-2-ylamino}acetic acid hydrochloride], the Ki in assay [3] (setting [4]) is 4.4 nM.
The compound `O=C(O)CNc1cccc(CN(Cc2ccc(-c3nccs3)cc2)S(=O)(=O)c2cccnc2)n1` [Example 11, (6-{(Pyridin-3-ylsulfonyl) [4-(thiazol-2-yl)benzyl]aminomethyl}pyridin-2-ylamino)-acetic acid trifluoroacetate] gave an EC50 in assay [2] of 0.42 nM. Moreover, in assay [3] (setting [4]), the Ki was found to be 3.8 nM.
In turn, `O=C(O)CNc1cccc(CN(Cc2cc3ccc(Cl)cc3s2)S(=O)(=O)c2cccnc2)n1` [Example 12, {6-[(6-Chlorobenzo[b]thiophen-2-ylmethyl)(pyridin-3-ylsulfonyl)aminomethyl]pyridin-2-ylamino}acetic acid hydrochloride] had an EC50 in assay [2] of 0.49 nM. For the same compound, the Ki in assay [3] (setting [4]) was determined as 1.1 nM.
The matching figures for `O=C(O)CNc1cccc(CN(Cc2cc3ccccc3s2)S(=O)(=O)c2cccnc2)n1` [Example 13, {6-[(Benzo[b]thiophen-2-ylmethyl)(pyridin-3-ylsulfonyl)aminomethyl]pyridin-2-ylamino}acetic acid hydrochloride]: 3.4 nM and 13 nM.
Regarding `COc1ccc2cc(CN(Cc3cccc(NCC(=O)O)n3)S(=O)(=O)c3cccnc3)sc2c1` [Example 15, {6-[(6-Methoxybenzo[b]thiophen-2-ylmethyl)(pyridin-3-ylsulfonyl)aminomethyl]-pyridin-2-ylamino}acetic acid hydrochloride], the response in assay [2] was half-maximal at 0.96 nM (EC50). Besides, the Ki in assay [3] (setting [4]) was 9.4 nM. In assay [1] (Cavia porcellus), this compound yielded an IC50 of 2.6 nM.
The matching figures for `O=C(O)CNc1cccc(CN(Cc2ccc(-c3cscn3)cc2)S(=O)(=O)c2ccccn2)n1` [Example 16, (6-{(Pyridin-2-ylsulfonyl)[4-(thiazol-4-yl)benzyl]aminomethyl}pyridin-2-ylamino)-acetic acid]: 0.62 nM, 3.1 nM and 2.6 nM.
The matching figures for `O=C(O)CNc1cccc(CN(Cc2ccc(-c3ccccc3)cc2)S(=O)(=O)c2ccccn2)n1` [Example 17, {6-[(Biphenyl-4-ylmethyl)(pyridin-2-ylsulfonyl)aminomethyl]pyridin-2-ylamino}acetic acid hydrochloride]: 1.8 nM, 1.5 nM and 2.6 nM.
The compound `O=C(O)CNc1cccc(CN(Cc2ccc(-c3ncccn3)cc2)S(=O)(=O)c2ccccn2)n1` [Example 18, (6-{(Pyridin-2-ylsulfonyl)[4-(pyrimidin-2-yl)benzyl]aminomethyl}pyridin-2-ylamino)-acetic acid hydrochloride] gave an EC50 in assay [2] of 5 nM. Besides, in assay [3] (setting [4]), the Ki was determined as 9.2 nM.
In turn, `O=C(O)CNc1cccc(CN(Cc2ccc(-c3ccccn3)cc2)S(=O)(=O)c2cccnc2)n1` [Example 19, (6-{[4-(Pyridin-2-yl)benzyl](pyridin-3-ylsulfonyl)aminomethyl}pyridin-2-ylamino)-acetic acid] yielded an EC50 in assay [2] of 2 nM. In other words, the single-digit nanomolar range.
With `O=C(O)CNc1cccc(CN(Cc2ccc(-n3cccn3)cc2)S(=O)(=O)c2ccccn2)n1` [Example 21, (6-{[4-(Pyrazol-1-yl)benzyl](pyridin-2-ylsulfonyl)aminomethyl}pyridin-2-ylamino)-acetic acid], in assay [2], a half-maximal effect (EC50) was put at 1.1 nM.
Still for that read-out and setting: next, `O=C(O)CNc1cccc(CN(Cc2ccc(-c3nc(C(F)(F)F)cs3)cc2)S(=O)(=O)c2ccccn2)n1` [Example 25, (6-{(Pyridin-2-ylsulfonyl)[4-(4-trifluoromethylthiazol-2-yl)benzyl]aminomethyl}-pyridin-2-ylamino)acetic acid]: 7.9 nM; `O=C(O)CNc1cccc(CN(Cc2ccc(-n3cccn3)cc2)S(=O)(=O)c2ccc(F)cc2)n1` [Example 26, (6-{(4-Fluorobenzenesulfonyl)[4-(pyrazol-1-yl)benzyl]aminomethyl}pyridin-2-ylamino)acetic acid]: 0.78 nM.
